Source: PMC11096148 (EJNMMI Radiopharmacy and Chemistry, 2024)
“And” between values parts separate entries of the source, which are not always exact repeats. Identical values can stand only once.

Assays:
ASGR = system: ASGR; design: method as in Stokmaier et al. [2009]; conditions: higher than galactose; ref Stokmaier et al. [2009]; cited from earlier work
mouse hepatic organoids = assay: Organoid uptake assay and fluorescence imaging; assay type: cell-based; conditions: 1 h at 37 °C
Protocol: For blocking, the experiment was conducted in presence of 10 mM GalNAc. At the end of the incubation time, cells were put on ice for 1 min and spun down (300 rcf, 5 min, 4 °C). The supernatant was carefully removed and organoids were washed twice with 200 µL of ice-cold PBS. Internalized activity was released by treating the organoids with 200 µL of 1 M NaOH for 10 min. Lysates were transferred into scintillation vials and the activity content was measured in a γ-counter. Organoid uptake was determined as the percentage of total radioactivity added.
For microscopic studies organoids were incubated with 333 nM BP-Fluor-647-TriGalactan for 1 h at 37 °C. Cells were pelleted, washed once with PBS and fixated by addition of 200 µL of fixation buffer (BD Cytofix/Cytoperm™, Fisher Scientific, Hampton, USA). After 1 h at room temperature, cells were washed again with PBS and incubated in 100 µL of perm/wash-buffer (Biozym, Hessisch Oldendorf, Germany) for another 30 min. For counter staining organoids were incubated over night at 4 °C with 30 µL of a mixture of 2 µM Hoechst 33,342 (Thermo Scientific), 165 nM Phalloidin CruzFluor™ 555 (Santa Cruz, Dallas, Texas, USA) and Anti-ASGR1 AF488-coupled antibody (2 µg/mL, Bio-Techne, Dublin, Ireland). The next day, organoids were centrifuged, washed three times with PBS and transferred to a CellCarrier-96 Ultra Microplate (PerkinElmer). The Operetta CLS system (revvity, Hamburg, Germany) was used to image the samples. Analysis was performed using the Harmony software 4.9.
Mouse hepatic organoids (Stemcell Technologies, Vancouver, Canada) were cultivated in HepatiCult® organoid growth medium supplemented with 1 % Penicillin/Streptomycin + l-Glutamine (Thermofisher Scientific, Waltham, Massachussetts, USA) embedded in a Geltrex^TM (Thermofisher Scientific) LDEV-free reduced growth factor basement membrane matrix. Medium was replaced every 3-4 days and organoids were passaged every 7-10 days. For passaging, matrix domes were mechanically disrupted and the cell suspension was transferred into a 15 mL falcon tube. […]

[1] = Small animal dynamic PET/MR imaging, time activity curves; assay type: in vivo; conditions: C57BL/6J mice
Protocol: All animal experiments were performed according to the German animal welfare act and approved by the local authorities (R5/19). Male C57BL/6J mice were purchased from Janvier Lab (Saint-Berthevin Cedex, France) at 6 weeks. Mice were kept under 1.5% isoflurane in oxygen during the measurements (n = 3). Approximately 1 MBq of the radiotracer was injected intravenously per mouse and 1 h dynamic PET was performed with an Inveon microPET system (Inveon D-PET, Siemens, Knoxville, TN, USA). Mice were then transferred to a 7 Tesla BioSpec 70/30 USR (Bruker Biospin MRI GmbH, Ettlingen, Germany) and a 15 min MR anatomical scan using T2-weighted 3-dimensional turbo spin-echo sequence was acquired. An Inveon Acquisition Workplace was used to reconstruct the acquired images using ordered subset expectation maximization 3D (OSEM 3D) and framing the dynamics. The reconstructed image analysis was performed by using an Inveon Research Workplace. After co-registering acquired MR images with PET images, regions of interest (ROIs) were drawn on liver, heart, muscle, and kidney and time activity curves (TACs) were quantified.

[2] = Biodistribution studies in healthy BALB/c mice; assay type: in vivo
Protocol: For biodistribution studies 6 week old female BALB/c mice (n = 3, Charles Rivers Laboratories, Sulzfeld, Germany) were injected with 0.1 nmol (100 µL, approx. 1 MBq) of ^68Ga-labelled compound via the lateral tail vein and sacrificed by cervical dislocation 10, 30, or 60 min post injection (p.i.). The mice were dissected, blood and organs were weighed and the activity of the samples measured in a γ-counter. For blocking experiments, mice were co-injected with 27.7 µmol of D-galactose.

Stability in PBS = assay type: physicochemical
Protocol: (§1) A detailed synthetic procedure for preparation of NODAGA-TriGalactan including analytical data as well as a complete list of all reagents can be found in the supplementary information. Protocols for determination of logD, protein binding and stability studies have been described elsewhere (Hörmann et al. [2020]).
(§2) Binding to the ASGR was quantified in an assay with freshly isolated mouse hepatocytes using the ^natGa-complex of NODAGA-TriGalactan. Hepatocytes were seeded in a 24-well plate and competitive binding against [^125I]I-asialorosomucoid (ASOR) was studied.

[3] = Stability in human blood serum; assay type: in vitro ADME; conditions: for Serum stability: human blood serum
Protocol: as §1, §2

plasma protein = assay: Protein binding; assay type: in vitro ADME
Protocol: as §1, §2

[4] = biological target: T1, asialoglycoprotein receptor (ASGR) (Mus musculus, UniProt P24721+P34927); assay: Competitive binding against [^125I]I-asialoorosomucoid on freshly isolated mouse hepatocytes; conditions: [^125I]I-asialoorosomucoid 5 nM, 1 hour on ice
T1 construct: endogenous in cells; host or cells: primary hepatocytes freshly isolated from C57BL/6 mice (collagenase perfusion)
T1 sequence (P34927 1-284): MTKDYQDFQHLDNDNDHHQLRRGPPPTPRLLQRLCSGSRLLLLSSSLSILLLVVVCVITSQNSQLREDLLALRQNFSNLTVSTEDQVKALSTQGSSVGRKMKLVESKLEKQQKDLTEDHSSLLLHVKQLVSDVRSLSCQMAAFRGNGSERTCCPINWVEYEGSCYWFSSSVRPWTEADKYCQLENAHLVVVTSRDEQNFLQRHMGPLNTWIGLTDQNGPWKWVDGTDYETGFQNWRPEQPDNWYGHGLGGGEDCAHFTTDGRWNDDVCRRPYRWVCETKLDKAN
T1 sequence (P24721 1-301): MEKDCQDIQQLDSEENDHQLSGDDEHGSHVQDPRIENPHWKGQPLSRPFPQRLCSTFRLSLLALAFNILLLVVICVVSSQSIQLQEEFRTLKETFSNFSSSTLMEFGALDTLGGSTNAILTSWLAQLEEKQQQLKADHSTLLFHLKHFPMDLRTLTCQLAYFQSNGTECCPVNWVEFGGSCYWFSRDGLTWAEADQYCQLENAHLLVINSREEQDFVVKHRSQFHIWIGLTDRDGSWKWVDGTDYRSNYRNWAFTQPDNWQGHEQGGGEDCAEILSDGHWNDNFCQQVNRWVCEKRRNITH
Protocol: Inhibitory constant (IC50) values were determined in triplicates using freshly isolated mouse hepatocytes (Seglen [1976]). […] In brief, cells were incubated in presence of [^125I]I-asialoorosomucoid (5 nM) with various ligand concentrations ranging from 10^− 5-10^− 11 M for 1 hour on ice. Cells were washed and cell bound activity was released by addition of 200 µL 1 M NaOH for 10 min. The activity content in the lysates was quantified in a γ-counter (2480 Wizard^2 3”, PerkinElmer, Waltham, Massachussetts, USA) and the values were plotted in excel. Fitting of the sigmoidal binding curve and the calculation of the IC50 value was done with excel’s solver plugin.
Binding to the ASGR was quantified in an assay with freshly isolated mouse hepatocytes using the ^natGa-complex of NODAGA-TriGalactan. Hepatocytes were seeded in a 24-well plate and competitive binding against [^125I]I-asialorosomucoid (ASOR) was studied. For comparison, the affinity of GSA for the receptor was also determined.
Isolation of murine hepatocytes followed the collagenase perfusion method published by Seglen [4]. Therefore, C57BL/6 mice were euthanized by cervical dislocation and subsequently the peritoneum was opened. […] Hepatocytes were resuspended in 20 – 30 mL of William’s E + Glutamaxx + 10 % FCS + 1 % Penicillin/Streptomycin (Gibco, Thermofisher Scientific) and counted, typically yielding 30 – 40 × 10^6 cells/animal. […]

[5] = 30 min p.i., blocking with 27.7 µmol D-galactose

SMILES: CC(=O)N[C@H]1C(O)O[C@H](CO)[C@H](O)[C@@H]1O (mixture of isomers) [GalNAc, N-acetylgalactosamine]
- affinity for the ASGR relative to galactose (ASGR): 10 times

SMILES: CC1(CCCCCC(=O)NCCCC(=O)NC(COCc2cn(CCOCCOCCO[C@@H]3O[C@H](CO)[C@H](O)[C@H](O)[C@H]3O)nn2)(COCc2cn(CCOCCOCCO[C@@H]3O[C@H](CO)[C@H](O)[C@H](O)[C@H]3O)nn2)COCc2cn(CCOCCOCCO[C@@H]3O[C@H](CO)[C@H](O)[C@H](O)[C@H]3O)nn2)C(/C=C/C=C/C=C2/N(CCCS(=O)(=O)O)c3ccc(S(=O)(=O)O)cc3C2(C)C)=[N+](CCCS(=O)(=O)[O-])c2ccc(S(=O)(=O)O)cc21 (stereo partly shown) [BP-Fluor-647-TriGalactan]
- Fluorescence imaging of mouse hepatic organoids (mouse hepatic organoids; 333 nM, co-staining with anti-ASGR antibody): internalization of the trimer into the organoids

SMILES: O=C([O-])CN1CCN(CC(=O)[O-])CCN([C@H](CCC(=O)NCCCC(=O)NC(COCc2cn(CCOCCOCCO[C@@H]3O[C@H](CO)[C@H](O)[C@H](O)[C@H]3O)nn2)(COCc2cn(CCOCCOCCO[C@@H]3O[C@H](CO)[C@H](O)[C@H](O)[C@H]3O)nn2)COCc2cn(CCOCCOCCO[C@@H]3O[C@H](CO)[C@H](O)[C@H](O)[C@H]3O)nn2)C(=O)[O-])CC1.[68Ga+3] [[^68Ga]Ga-NODAGA-TriGalactan]
- Time of kidney activity peak, PET TAC [1]: ~1.5 min
- Background muscle uptake, PET TAC ([1]; 1 h dynamic PET): less than 3 % ID/mL
- Activity in the blood (measured in the heart), PET TAC ([1]; within the first three minutes): below 5 % ID/mL
- Cellular uptake on mouse hepatic organoids (mouse hepatic organoids; 0.3 nM tracer): decent degree of internalization
- Cellular uptake with blocking on mouse hepatic organoids (mouse hepatic organoids; in presence of 10 mM GalNAc, p < 0.05): receptor specific interaction with the ASGR
- Biodistribution Blood ([2]; 10 min p.i.): 3.3 ± 0.2 % ID/g
- Biodistribution Femur ([2]; 10 min p.i.): 0.87 ± 0.52 % ID/g
- Biodistribution Intestine ([2]; 10 min p.i.): 1.13 ± 0.07 % ID/g
- Biodistribution Kidneys ([2]; 10 min p.i.): 8.2 ± 0.5 % ID/g and 8.15 ± 0.54 % ID/g
- Biodistribution Liver ([2]; 10 min p.i.): 33.4 ± 0.9 % ID/g
- Biodistribution Lung ([2]; 10 min p.i.): 2.14 ± 0.13 % ID/g
- Biodistribution Muscle ([2]; 10 min p.i.): 0.77 ± 0.02 % ID/g
- Biodistribution Pancreas ([2]; 10 min p.i.): 0.87 ± 0.12 % ID/g
- Biodistribution Spleen ([2]; 10 min p.i.): 0.78 ± 0.05 % ID/g
- Biodistribution Blood ([2]; 30 min p.i.): 0.89 ± 0.09 % ID/g
- Biodistribution Femur ([2]; 30 min p.i.): 0.22 ± 0.02 % ID/g
- Biodistribution Heart ([2]; 30 min p.i.): 0.40 ± 0.03 % ID/g
- Biodistribution Intestine ([2]; 30 min p.i.): 1.95 ± 0.17 % ID/g
- Biodistribution Kidneys ([2]; 30 min p.i.): 2.83 ± 0.18 % ID/g
- Biodistribution Liver ([2]; 30 min p.i.): 32.2 ± 3.7 % ID/g
- Biodistribution Lung ([2]; 30 min p.i.): 0.74 ± 0.03 % ID/g
- Biodistribution Muscle ([2]; 30 min p.i.): 0.23 ± 0.03 % ID/g
- Biodistribution Pancreas ([2]; 30 min p.i.): 0.31 ± 0.05 % ID/g
- Biodistribution Spleen ([2]; 30 min p.i.): 0.27 ± 0.02 % ID/g
- Biodistribution Stomach ([2]; 30 min p.i.): 1.05 ± 0.08 % ID/g
- Biodistribution Blood [2, 5]: 1.19 ± 0.33 % ID/g
- Biodistribution Femur [2, 5]: 0.37 ± 0.16 % ID/g
- Biodistribution Heart [2, 5]: 0.44 ± 0.03 % ID/g
- Biodistribution Intestine [2, 5]: 0.77 ± 0.19 % ID/g
- Biodistribution Kidneys [2, 5]: 4.19 ± 0.29 % ID/g
- Biodistribution Liver [2, 5]: 14.6 ± 0.15 % ID/g
- Biodistribution Lung [2, 5]: 0.97 ± 0.04 % ID/g
- Biodistribution Muscle [2, 5]: 0.43 ± 0.20 % ID/g
- Biodistribution Pancreas [2, 5]: 0.45 ± 0.01 % ID/g
- Biodistribution Spleen [2, 5]: 0.32 ± 0.03 % ID/g
- Biodistribution Stomach [2, 5]: 0.68 ± 0.11 % ID/g
- Biodistribution Blood ([2]; 60 min p.i.): 0.3 ± 0.04 % ID/g and 0.34 ± 0.04 % ID/g
- Biodistribution Femur ([2]; 60 min p.i.): 0.26 ± 0.19 % ID/g
- Biodistribution Heart ([2]; 60 min p.i.): 0.17 ± 0.00 % ID/g
- Biodistribution Intestine ([2]; 60 min p.i.): 3.0 ± 0.4 % ID/g and 2.99 ± 0.43 % ID/g
- Biodistribution Kidneys ([2]; 60 min p.i.): 1.51 ± 0.10 % ID/g
- Biodistribution Liver ([2]; 60 min p.i.): 27.7 ± 3.1 % ID/g
- Biodistribution Lung ([2]; 60 min p.i.): 0.38 ± 0.10 % ID/g
- Biodistribution Muscle ([2]; 60 min p.i.): 0.17 ± 0.02 % ID/g
- Biodistribution Pancreas ([2]; 60 min p.i.): 0.19 ± 0.09 % ID/g
- Biodistribution Spleen ([2]; 60 min p.i.): 0.16 ± 0.02 % ID/g
- Biodistribution Stomach ([2]; 60 min p.i.): 0.92 ± 0.04 % ID/g
- PBS stability (Stability in PBS; 2 min): 99.8%
- PBS stability (Stability in PBS; 30 min): 99.8%
- PBS stability (Stability in PBS; 60 min): 99.8%
- PBS stability (Stability in PBS; 120 min): 99.8%
- stability in PBS (intact tracer) (Stability in PBS; over the time course of 2 h): > 99%
- Serum stability ([3]; 2 min): 99.8 ± 0%
- Serum stability ([3]; 30 min): 97.6 ± 2.3%
- Serum stability ([3]; 60 min): 98.5 ± 1.2%
- Serum stability ([3]; 120 min): 92.9 ± 4.6%
- stability in human blood serum (intact tracer) ([3]; over the time course of 2 h): > 93%
- Protein binding (plasma protein; 2 min of incubation): 7.6 ± 3.9%
- Protein binding (plasma protein; 30 min of incubation): 5.5 ± 0.5%
- Protein binding (plasma protein; 60 min of incubation): 9.2 ± 0.2%
- Protein binding (plasma protein; 120 min of incubation): 13.6 ± 3.2%

SMILES: O=C([O-])CN1CCN(CC(=O)[O-])CCN([C@H](CCC(=O)NCCCC(=O)NC(COCc2cn(CCOCCOCCO[C@@H]3O[C@H](CO)[C@H](O)[C@H](O)[C@H]3O)nn2)(COCc2cn(CCOCCOCCO[C@@H]3O[C@H](CO)[C@H](O)[C@H](O)[C@H]3O)nn2)COCc2cn(CCOCCOCCO[C@@H]3O[C@H](CO)[C@H](O)[C@H](O)[C@H]3O)nn2)C(=O)[O-])CC1.[Ga+3] [[^natGa]Ga-NODAGA-TriGalactan]
- IC50 [4]: 73.2 ± 67.5 nM
